For one assay, the system named is HUVEC. Briefly: Antiproliferative activity against HUVEC cells by WST-8 colorimetric assay. In kind it is cell-based. The conditions noted are these: Homo sapiens. A general note: Formazan colour is commonly taken as a measure of viable cells.
In another assay the test system is NHDF. As to the kind of experiment: Antiproliferative activity against NHDF cells by WST-8 colorimetric assay. The following applies: Homo sapiens. In kind it is functional, cell-based.
Another assay deals with K562. Briefly: Antiproliferative activity against human K562 cells by WST-8 colorimetric assay. The class given is functional, cell-based.
Assay [1] can be described thus: Antiproliferative activity against mouse Neuro-2A cells by WST-8 colorimetric assay. In kind it is functional, cell-based. The following applies: N2a.
Assay [2] is described as follows: Antiproliferative activity against human KB3-1 cells by WST-8 colorimetric assay. The conditions noted are these: KB 3-1. In kind it is functional, cell-based.

A value given as a limit tells only on which side of the number the result lay.

Regarding `Cc1cnccc1/C=C/C(C)[C@H]1CC[C@@H]2[C@]1(C)CCC1=CC3=CC[C@@H](N(C)C)C[C@]34CC[C@@]12O4` (stereo not given in full) [CORTISTATIN G], the IC50 (usually the concentration needed to halve the response being measured) in the assay with HUVEC worked out at 800 nM; in the assay on NHDF, 2900 nM; in the assay with K562, 3800 nM; in assay [1], 4000 nM; in assay [2] it was 8900 nM.
Take `CN(C)[C@@H]1C=CC2=CC3=CC[C@]4(C)[C@@H](c5ccc6ccncc6c5)CC[C@H]4[C@@]34CC[C@]2(C1)O4` [CORTISTATIN J]: the IC50 with HUVEC is 8 nM; with NHDF, 2400 nM; with K562, 3300 nM; in assay [1] it was 3300 nM; in assay [2], 9100 nM.
Consider `CC1CN(C)CCC1CCC(C)[C@H]1CC[C@@H]2[C@]1(C)CC=C1C=C3C=C[C@@H](N(C)C)C[C@]34CC[C@@]12O4` (stereo not given in full) [CORTISTATIN F], for which the IC50 in the assay with HUVEC was found to be 1900 nM; with NHDF, 4100 nM; in the assay on K562, 4000 nM; in assay [1], 4000 nM; in assay [2] it was 10800 nM.
On to `CN(C)[C@@H]1CC=C2C=C3CC[C@]4(C)[C@@H](c5ccc6ccncc6c5)CC[C@H]4[C@@]34CC[C@]2(C1)O4` [CORTISTATIN K], for which the concentration for half-maximal inhibition (IC50) in the assay with HUVEC was found to be 40 nM; with NHDF it was 2500 nM; with K562 it was 3900 nM; in assay [1], 3000 nM; in assay [2] it was 10200 nM.
The matching figures for `CC1CN(C)CCC1CCC(C)[C@H]1CC[C@@H]2[C@]1(C)CCC1=CC3=CC[C@@H](N(C)C)C[C@]34CC[C@@]12O4` (stereo not given in full) [CORTISTATIN E]: 450 nM, 1900 nM, 2800 nM, 1900 nM and 2500 nM.
For the compound `CN(C)[C@H]1C[C@@]23CC[C@@]4(O2)C(=CC[C@@]2(C)[C@H]4CC(=O)[C@]2(O)c2ccc4ccncc4c2)C=C3[C@@H](O)[C@@H]1O`, the IC50 in the assay on HUVEC is 150 nM; in the assay on NHDF, over 300000 nM; in the assay with K562, over 300000 nM; in assay [1] it was over 300000 nM; in assay [2] it was 55000 nM.
Regarding `CN(C)[C@H]1C[C@@]23CC[C@@]4(O2)C(=CC3=C[C@@H]1O)CC[C@]1(C)[C@@H](c2ccc3ccncc3c2)CC[C@H]14` [CORTISTATIN L], the IC50 with HUVEC is 23 nM; in the assay with NHDF it was 2400 nM; in the assay with K562, 4300 nM; in assay [1], 2800 nM; in assay [2] it was 14000 nM.
With `Cc1cnccc1CCC(C)[C@H]1CC[C@@H]2[C@]1(C)CCC1=CC3=CC[C@@H](N(C)C)C[C@]34CC[C@@]12O4` (stereo not given in full) [CORTISTATIN H], the IC50 in the assay on HUVEC came out at 350 nM; in the assay with NHDF, 2700 nM; in the assay with K562, 2700 nM; in assay [1] it was 2200 nM; in assay [2], 2300 nM.
On to `CN(C)[C@H]1C[C@@]23CC[C@@]4(O2)C(=CC[C@@]2(C)[C@H]4C[C@H](O)[C@@H]2c2ccc4ccncc4c2)C=C3[C@@H](O)[C@@H]1O`, for which the IC50 was 1100 nM with HUVEC; over 300000 nM in the assay on NHDF; 200000 nM in the assay with K562; 160000 nM in assay [1]; 120000 nM in assay [2].

Source of the values: ChEMBL document CHEMBL1137453, “Structure-activity relationship and biological property of cortistatins, anti-angiogenic spongean steroidal alkaloids” (Bioorg Med Chem, 2007).
